Measurements from patent US4844897A, “Anti-tumor protease preparations” (Maeda; Hiroshi, priority 1985, dated 1989).

B1: Papain: protease of plant origin (protein, UniProt P00784 134-345, looked up)
Papain: IPEYVDWRQKGAVTPVKNQGSCGSCWAFSAVVTIEGIIKIRTGNLNEYSEQELLDCDRRSYGCNGGYPWSALQLVAQYGIHYRNTYPYEGVQRYCRSREKGPYAAKTDGVRQVQPYNEGALLYSIANQPVSVVLEAAGKDFQLYRGGIFVGPCGNKVDHAVAAVGYGPNYILIKNSWGTGWGENGYIRIKRGTGNSYGVCGLYTSSFYPVKN

Experiments:
[1] = system: Burkitt's lymphoma (Raji); test: Toxicity of various proteases against cultured cells, serum-free; type: cell-based; details: absence of serum, 24-hour treatment
Protocol: (§1) Cell toxicity of various proteases against cultured cells and influences of serum on the cell toxicity:
(§2) The present inventors have investigated cell-killing effects of various proteases by adding the proteases to various cultured cells, and also at the same time the effect of serum on the cytotoxicity.
(§3) After 24 hours, the cells in the Lab Tech chambers were allowed to culture under three different condition. In group A, they were replaced in RPMI medium with 10% fetal calf serum containing different concentrations of test protease. In group B, the same medium with appropriate protease was used but devoid of serum; In group C, a control medium was used with 10% serum but without protease. One hour and 24 hours after the culturing cytotoxicity, observed microscopically, was determined by counting the number of cells and by morphological investigation.

[2] = system: Human normal T-lymphocytes; test: as above; type: cell-based; details: absence of serum, 24-hour treatment
Protocol: as §1, §2, §3

[3] = system: Mouse leukemia (RL.male. 1); test: as above; type: cell-based; details: absence of serum, 24-hour treatment
Protocol: as §1, §2, §3

[4] = system: Human laryngeal carcinoma (HEp-2); test: as above; type: cell-based; details: absence of serum, 24-hour treatment
Protocol: as §1, §2, §3

[5] = system: Monkey kidney fibroblast (Vero); test: as above; type: cell-based; details: normal cell, absence of serum, 24-hour treatment
Protocol: as §1, §2, §3

Human fibroblast (WISH) = test: as above; type: cell-based; details: normal cell, absence of serum, 24-hour treatment
Protocol: as §1, §2, §3

[6] = system: Human fetus lung fibroblast (HEL); test: as above; type: cell-based; details: normal cell, absence of serum, 24-hour treatment
Protocol: as §1, §2, §3

[7] = system: Cervical canal cancer (HeLa); test: as above; type: cell-based; details: absence of serum, 24-hour treatment
Protocol: as §1, §2, §3

Rat neuroblastoma (C6) = test: as above; type: cell-based; details: absence of serum, 24-hour treatment
Protocol: as §1, §2, §3

[8] = system: African green monkey kidney (Epithelial cells); test: as above; type: cell-based; details: normal, absence of serum, 24-hour treatment
Protocol: as §1, §2, §3

[9] = system: Human submaxillary gland tumor (HSG); test: as above; type: cell-based; details: absence of serum, 24-hour treatment
Protocol: as §1, §2, §3

[10] = system: Rat hepatocytes (Liver cells); test: as above; type: cell-based; details: normal, absence of serum, 24-hour treatment
Protocol: as §1, §2, §3

HeLa = test: Cytotoxicity induced by protease activity in the presence of serum; type: cell-based
Protocol: as §1, §2, §3

tumor cell = test: Effect of serum on tumor cell toxicity with time; type: cell-based; details: presence of serum; 24-hour vs one-hour treatment
Protocol: as §1, §2, §3

[11] = system: α1 anti-trypsin, α2 antichymotrypsin, α2 macroglobulin, etc.; test: Inhibition of protease activity by protease-inhibiting substances in vivo
tumors = test: Anti-tumor action of proteases (general statement); type: in vivo
Vero = test: Cytotoxicity induced by protease activity in the presence of serum; type: cell-based, monkey
Protocol: as §1, §2, §3

GMK = test: as above; type: cell-based, African green monkey
Protocol: as §1, §2
as §3, with “A 0.5 ml aliquot of RPMI-1640 medium or Eagle's NEM medium containing 10% bovine fetal calf serum was placed in a Lab Tech plastic chamber of 8-well type, (Falcon Inc.), and suspensions of various tumor cells, each containing about 1×10^4 cells in 0.5 ml, were added thereto and cultured in an incubator at 37° C. in 5% CO2 (95% being air). After” for “After”
(§4) (b) Numerals show reciprocal number of dilution for obtaining the
(§5) equivalent effect after 24hour treatment on the basis of the effect of th […]

HEL = test: as above; type: cell-based, human
Protocol: as §1, §2
as §3, with “A 0.5 ml aliquot of RPMI-1640 medium or Eagle's NEM medium containing 10% bovine fetal calf serum was placed in a Lab Tech plastic chamber of 8-well type, (Falcon Inc.), and suspensions of various tumor cells, each containing about 1×10^4 cells in 0.5 ml, were added thereto and cultured in an incubator at 37° C. in 5% CO2 (95% being air). After” for “After”
as §4, §5

C6 = test: as above; type: cell-based, rat
Protocol: as §1, §2, §3

WISH = test: as above; type: cell-based, human
Protocol: as §1, §2, §3

HSG = test: as above; type: cell-based, human
Protocol: as §1, §2, §3

HeP2 = test: as above; type: cell-based, human
Protocol: as §1, §2, §3

Meth A tumor = test: Effectiveness on mouse solid tumor (methylcholanthrene-induced Meth A tumor); type: in vivo, Balb/C mouse; details: injected into solid tumors, 0.1 ml, two administrations (once for each day); FIG. 3
Protocol: Anti-tumor actions of various proteases: Effectiveness on mouse solid tumor (i.e., effect on methylcholanthrene-induced tumor (Meth A tumor):
The diameters of the tumors after two administrations (once for each day) were measured.

Row | Molecule | Minimum effective concentration [1] | Minimum effective concentration [2] | Minimum effective concentration [3] | Minimum effective concentration [4] | Minimum effective concentration [5] | Minimum effective concentration (Human fibroblast (WISH)) | Minimum effective concentration [6] | Minimum effective concentration [7] | Minimum effective concentration (Rat neuroblastoma (C6)) | Minimum effective concentration [8] | Minimum effective concentration [9] | Minimum effective concentration [10] | Cytotoxicity in the presence of serum with time (reciprocal number of dilution for equivalent effect after 24-hour vs one-hour treatment) (HeLa) | cytotoxic effects in 24-hour treatment than one-hour treatment (tumor cell) | inhibition of activity by protease-inhibiting substances in vivo [11] | anti-tumor action / effect on propagation of tumors (tumors) | Cytotoxicity in the presence of serum with time (reciprocal number of dilution for equivalent effect after 24-hour vs one-hour treatment) (Vero) | Cytotoxicity in the presence of serum with time (reciprocal number of dilution for equivalent effect after 24-hour vs one-hour treatment) (GMK) | Cytotoxicity in the presence of serum with time (reciprocal number of dilution for equivalent effect after 24-hour vs one-hour treatment) (HEL) | action against tumor propagation (Meth A solid tumor) (Meth A tumor) | also measured
1 | Trypsin | 0.05 µg/mL | 0.39 µg/mL | 0.78 µg/mL | 1.56 µg/mL | 1.56 µg/mL | 1.56 µg/mL | 0.20 µg/mL | 0.78 µg/mL | 1.56 µg/mL | 0.39 µg/mL | 0.39 µg/mL | > 5.0 µg/mL | 2-4 | no substantial enhancement | completely inhibited | no anti-tumor action | 2-4 | 2 | 2 | no substantial action against the tumor propagation | Cytotoxicity in the presence of serum with time (reciprocal number of dilution for equivalent effect after 24-hour vs one-hour treatment) (C6): 2; Cytotoxicity in the presence of serum with time (reciprocal number of dilution for equivalent effect after 24-hour vs one-hour treatment) (WISH): 4; Cytotoxicity in the presence of serum with time (reciprocal number of dilution for equivalent effect after 24-hour vs one-hour treatment) (HSG): 2-4; Cytotoxicity in the presence of serum with time (reciprocal number of dilution for equivalent effect after 24-hour vs one-hour treatment) (HeP2): 0-4
2 | pepsin |  |  |  |  |  |  |  |  |  |  |  |  |  |  | completely inhibited | no anti-tumor action |  |  |  | no substantial action against the tumor propagation | 
3 | chymotrypsin |  |  |  |  |  |  |  |  |  |  |  |  |  |  | completely inhibited | no anti-tumor action |  |  |  |  | 
4 | B1 | 0.06 µg/mL | 0.37 µg/mL | 0.82 µg/mL | 1.60 µg/mL | 1.58 µg/mL | 1.52 µg/mL | 0.20 µg/mL | 0.84 µg/mL | 1.60 µg/mL | 0.38 µg/mL | 0.38 µg/mL | > 5.0 µg/mL | 2-4 | no substantial enhancement | completely inhibited | no anti-tumor action | 2-4 | 2 | 2 | no substantial action against the tumor propagation | Cytotoxicity in the presence of serum with time (reciprocal number of dilution for equivalent effect after 24-hour vs one-hour treatment) (C6): 2; Cytotoxicity in the presence of serum with time (reciprocal number of dilution for equivalent effect after 24-hour vs one-hour treatment) (WISH): 2; Cytotoxicity in the presence of serum with time (reciprocal number of dilution for equivalent effect after 24-hour vs one-hour treatment) (HSG): 2-4; Cytotoxicity in the presence of serum with time (reciprocal number of dilution for equivalent effect after 24-hour vs one-hour treatment) (HeP2): 0-4
